Measured values published in patent US10993916B2, “Crystalline microparticles of a beta-agonist coated with a fatty acid” (Chiesi Farmaceutici S.p.A., priority 2011, dated 2021).

Legend:
Type in all cases: physicochemical
[1] = Aerosol performances of the pMDI formulations of salmeterol xinafoate microparticles (Next Generation Impactor); conditions: pMDI suspension in HFA134a, FEP-coated canisters, nominal dose 25 μg, mean±S.D.
Procedure: (§1) The pMDI formulations were also characterized in terms of aerosol performances. They were assessed using a Next Generation Impactor to according to the procedure described in the European Pharmacopoeia 7th edition, 2011, part 2.9.18.
(§2) Quantification of formoterol fumarate dihydrate (FF) was performed using a HPLC method. The following parameters were determined: • i) delivered dose (DD) is calculated from the cumulative deposition in the […], divided by the number of actuations per experiment; • ii) fine particle mass (FPM) is obtained by interpolation of the cumulative percentage undersize of drug mass deposition versus cut off diameter. The FPM corresponds to particles of diameter ≤5.0 microns, divided by the number of actuations per experiment. • iii) respirable fraction (fine particle fraction=FPF) which is the percent ratio between the fine particle mass and the delivered dose. • iv) mass median aerodynamic diameter (MMAD) which is the diameter around which the mass aerodynamic diameters of the emitted particles are distributed equally;
To prepare pMDI aerosol suspension formulations with a nominal dose of the active ingredient of 25 μg, canisters coated with FEP were filled in a controlled atmosphere room, by successively introducing 3.0 mg the microparticles of Example 5 and then 6 ml pressurized HFA134a gas. The devices were fitted with a 50 μl APTAR valve and a Bespak actuator of 0.3 mm. For comparative purposes, a pMDI aerosol suspension formulations comprising micronized salmeterol xinafoate was also prepared. The pMDI formulations were characterized in terms of aerosol performances. They were assessed as described in Example 3.

[2] = Aerosol performances of the pMDI formulations of formoterol fumarate microparticles (Next Generation Impactor); conditions: pMDI suspension in HFA134a, nominal dose 12 μg, mean±S.D.
Procedure: To prepare pMDI aerosol suspension formulations with a nominal dose of the active ingredient of 12 μg, the aluminum canisters were filled in a controlled atmosphere room, by successively introducing 2.4 mg the microparticles of Example 1 and then 10 ml pressurized HFA134a gas. The devices were fitted with a 50 μl APTAR valve and a Bespak actuator of 0.3 mm. For comparative purposes, a pMDI aerosol suspension formulations comprising micronized formoterol fumarate dihydrate was also prepared. The sedimentation rate was determined using a Turbiscan apparatus (Formulaction SA, France).
as §1, §2

[3] = Aerosol performances of the powder formulations (Next Generation Impactor, RS01/7 inhaler); conditions: dry powder with alpha-lactose monohydrate carrier, 6 μg drug to 10 mg carrier, mean±S.D.
Procedure: To prepare powder formulations, the microparticles of Example 1 FF-myr 0.5 and Ff-myr 2.0 were mixed in a Turbula mixer with alpha-lactose monohydrate having a mass diameter comprised between 90 and 150 μm as a carrier, to obtain a ratio of 6 μg of drug to 10 mg of carrier. […] Each powder was filled in hard HMPC gelatine capsules, in turn loaded in a RS01/7 unit dose inhaler (Plastiape, Italy).
The aerosol performances were evaluated using a Next Generation Impactor (NGI) according to the procedure described in European Pharmacopoeia 7th edition, 2011, part 2.9.18, pages 281-285. The results (mean±S.D.) in terms of delivered dose (DD), fine particle mass (FPM), fine particle fraction (FPF) and mass median aerodynamic diameter (MMAD), are reported in Table 3.

SMILES | DD (delivered dose) [1] [µg] | FPF (fine particle fraction) [1] [%] | FPM (fine particle mass) [1] [µg] | MMAD (mass median aerodynamic diameter) [1] [μm] | DD (delivered dose) [2] [µg] | FPF (fine particle fraction, respirable fraction) [2] [%] | FPM (fine particle mass, ≤5.0 microns) [2] [µg] | MMAD (mass median aerodynamic diameter) [2] [μm] | DD (delivered dose) [3] [µg] | FPF (fine particle fraction) [3] [%] | FPM (fine particle mass) [3] [µg] | MMAD (mass median aerodynamic diameter) [3] [μm]
OCc1cc(C(O)CNCCCCCCOCCCCc2ccccc2)ccc1O (stereo not drawn) [SX raw, salmeterol xinafoate] | 14.28 ± 1.72 | 29.74 ± 1.75 | 4.23 ± 0.25 | 2.79 ± 0.39 |  |  |  |  |  |  |  | 
COc1ccc(CC(C)NCC(O)c2ccc(O)c(NC=O)c2)cc1.COc1ccc(CC(C)NCC(O)c2ccc(O)c(NC=O)c2)cc1.O.O.O=C(O)/C=C/C(=O)O (stereo not drawn) [FF raw material, formoterol fumarate dihydrate] |  |  |  |  | 8.34 ± 0.32 | 81.9 ± 2.9 | 6.84 ± 0.51 | 1.92 ± 0.00 | 73 ± 0.02 | 14.03 ± 0.82 | 0.71 ± 0.04 | 2.36 ± 0.05
